What all share (assay): MIC, microdilution broth method
One test has as its system MSSA9144. It counts as cell-based, Staphylococcus aureus. As to conditions: MSSA9144; in µg/mL.
A further test has as its system EMRSA15. It is filed as cell-based, Staphylococcus aureus. As to conditions: for MIC: EMRSA15, in µg/mL.
Another test deals with EMRSA16. It counts as cell-based, Staphylococcus aureus. As to conditions: for MIC: EMRSA16, in µg/mL.
The test system of the next test is VSE775. It is filed as cell-based, Enterococcus faecalis. As to conditions: VSE775; in µg/mL.
In another test the test system is VRE12201. It is filed as cell-based, Enterococcus faecalis. As to conditions: VRE12201; in µg/mL.
The subject of the next test is VRE12204. It is filed as cell-based, Enterococcus faecium. As to conditions: VRE12204; in µg/mL.
Another test concerns M6. It is filed as cell-based. As to conditions: M6, in µg/mL.
Another test deals with Ab17978. It is filed as cell-based. As to conditions: Ab17978, in µg/mL.
A further test deals with PA01. It counts as cell-based, Pseudomonas aeruginosa. As to conditions: PA01, in µg/mL.

Take `CCn1cc(C(=O)O)c(=O)c2cc(F)c(N3CCN(Cc4ccc(-n5cccn5)cc4)CC3)cc21` [Compound 3.30, 7-(4-(4-(1H-pyrazol-1-yl)benzyl)piperazin-1-yl)-1-ethyl-6-fluoro oxo-1-4-dihydroquinoline-3-carboxylic acid]: the MIC was 0.5 against MSSA9144; 16-32 against EMRSA15; 32 against EMRSA16; 8 in the test with VSE775; 4-8 in the test with VRE12201; 16 in the test with VRE12204.

As for `CCn1cc(C(=O)O)c(=O)c2cc(F)c(N3CCN(Cc4ccc(-c5noc(C)n5)cc4)CC3)cc21` [Compound 3.36, 1-ethyl-6-fluoro-7-(4-(4-(5-methyl-1,2,4-oxadiazol-3-yl)-benzyl)piperazin-1-yl)-4-oxo-1,4-dihydroquinone-3-carboxylic acid], the MIC in the test with MSSA9144 is on record as 0.25; against EMRSA15 it was 16-32; in the test on EMRSA16, 32; against VSE775, 8; against VRE12201, 4; with VRE12204 it was 8.

On to `CCn1cc(C(=O)O)c(=O)c2cc(F)c(N3CCN(Cc4cccc5ccccc45)CC3)nc21` [ML-77-025], for which the MIC against MSSA9144 was 0.5-1; in the test with EMRSA15, 2-8; in the test with EMRSA16 it was 2-4; with VSE775, 16; with VRE12201 it was 8; in the test on VRE12204, 4. Also, the “fold reduction (potentiation) in MIC compared to the parent fluoroquinolone” value with EMRSA15 (EMRSA-15) and in the test with EMRSA16 (EMRSA-16) was 64-128 fold each time.

With `CCn1cc(C(=O)O)c(=O)c2cc(F)c(N3CCN(Cc4cccc5c4OCO5)CC3)cc21` [ML-77-035], the MIC is given as 8-16 against M6 (Normal (no PMBN)); 2-4 with Ab17978 (Normal (no PMBN)); 64-128 against PA01 (Normal (no PMBN)); 0.5 in the test with MSSA9144; over 32 against EMRSA15; over 32 against EMRSA16. Besides, the MIC against VSE775 is on record as 8; against VRE12201, 4; in the test on VRE12204, 8.

With `O=C(O)c1cn(C2CC2)c2cc(N3CCN(Cc4ccc5ccccc5c4)CC3)c(F)cc2c1=O` [ML-77-036], the MIC is recorded as 4-32 with M6 (Normal (no PMBN)); 8 against Ab17978 (Normal (no PMBN)); 0.12 in the test on MSSA9144; 2 against EMRSA15; 2 against EMRSA16; 0.5-2 against VSE775. Besides, the values for the MIC in the test with VRE12201 and in the test on VRE12204 were 0.5 and 2, respectively.

Take `O=C(O)c1cn(C2CC2)c2cc(N3CCN(Cc4cccc5c4CCCC5)CC3)c(F)cc2c1=O` [ML-77-076]: the MIC against M6 (Normal (no PMBN)) is 8; in the test on MSSA9144 it was 0.25; in the test on EMRSA15 it was 1; against EMRSA16, 1-2; in the test with VSE775 it was 2; against VRE12201 it was 1-2. In addition, the MIC against VRE12204 is 1-2.

For `CCn1cc(C(=O)O)c(=O)c2cc(F)c(N3CCN(Cc4cccc5c4CCCC5)CC3)cc21` [ML-77-077], the MIC is on record as 64 in the test with M6 (Normal (no PMBN)); 32-128 against Ab17978 (Normal (no PMBN)); 1 in the test on MSSA9144; 2 against EMRSA15; 2 against EMRSA16; 2 against VSE775. Further, the MIC is reported as 2 against VRE12201 and 1-2 against VRE12204.

On to `O=C(O)c1cn(C2CC2)c2cc(N3CCN(Cc4cccc5ccsc45)CC3)c(F)cc2c1=O` [ML-77-078], for which the MIC against M6 (Normal (no PMBN)) is given as 32; in the test on Ab17978 (Normal (no PMBN)), 4-8; against MSSA9144, under 0.12; with EMRSA15 it was 2; in the test with EMRSA16, 2; in the test with VSE775 it was 2-4. For the same compound, the results for the MIC in the test with VRE12201 and in the test on VRE12204 were 0.5 and 1-2, respectively.

With `CCn1cc(C(=O)O)c(=O)c2cc(F)c(N3CCN(Cc4cccc5ccsc45)CC3)cc21` [ML-77-079], the MIC is 32 against M6 (Normal (no PMBN)); 0.25 in the test with MSSA9144; 2 against EMRSA15; 2 in the test on EMRSA16; 4 with VSE775; 0.5-2 against VRE12201. For the same compound, in the test on VRE12204, the MIC was 1-2.

For `CN(C)c1ccc(CN2CCN(c3cc4c(cc3F)c(=O)c(C(=O)O)cn4C3CC3)CC2)cc1` [ML-77-112], the MIC in the test with M6 (Normal (no PMBN)) is 1-2; in the test with Ab17978 (Normal (no PMBN)), 0.5-1; against PA01 (Normal (no PMBN)), 8; against MSSA9144, 0.0625-0.125; in the test with EMRSA15, 8-16; against VSE775, 0.25-1. Further, the MIC in the test on VRE12201 is recorded as 0.125-0.5; with VRE12204, 1.

On to `CCn1cc(C(=O)O)c(=O)c2cc(F)c(N3CCN(Cc4ccc(-c5ccccc5)cc4)CC3)cc21` [ML-77-134, 7-(4-([1,1′-biphenyl]-4-ylmethyl)piperazin-1-yl)-1-ethyl-6-fluoro-4-oxo-1,4-dihydroquinoline-3-carboxylic acid], for which the MIC in the test on M6 (Normal (no PMBN)) is on record as 64; against MSSA9144, 2; against EMRSA15 it was 2; against EMRSA16, 4; in the test on VSE775 it was 2; in the test on VRE12201, 4. Further, in the test on VRE12204, the MIC is 2.

Consider `O=C(O)c1cn(C2CC2)c2cc(N3CCN(Cc4ccc(S(=O)(=O)NCCc5c[nH]c6ccccc56)cc4)CC3)c(F)cc2c1=O` [ML-77-138], for which the MIC with M6 (+PMBN) was 1; in the test with Ab17978 (+PMBN) it was 1; against Ab17978 (Normal (no PMBN)) it was 64; against PA01 (+PMBN), at most 0.12; with MSSA9144, 0.25-0.5.

On to `C[C@H]1COc2c(N3CCN(Cc4cccc5ccccc45)CC3)c(F)cc3c(=O)c(C(=O)O)cn1c23` [ML-77-140, (S)-9-fluoro-3-methyl-10-(4-(naphthalen-1-ylmethyl)piperazin-1-yl)-7-oxo-2,3-dihydro-7H-[1,4]oxazino[2,3,4-ij]quinoline-6-carboxylic acid], for which the MIC in the test with MSSA9144 was 0.125-1; against EMRSA15, 4; against EMRSA16, 2-4; against VSE775, 1-2; with VRE12201 it was 0.5-1; in the test on VRE12204 it was 1-2.

With `CCn1cc(C(=O)O)c(=O)c2cc(F)c(N3CCN(Cc4cc(C)cc(C)c4)CC3)cc21` [ML-77-150, 7-(4-(3,5-dimethylbenzyl)piperazin-1-yl)-1-ethyl-6-fluoro-4-oxo-1,4-dihydroquinoline-3-carboxylic acid], the MIC in the test with M6 (Normal (no PMBN)) is on record as 32-64; in the test on Ab17978 (Normal (no PMBN)), 16; against MSSA9144 it was 0.5-1; against EMRSA15, 4-8; in the test with EMRSA16, 4-8; against VSE775 it was 8. Also, the MIC was 8 with VRE12201 and 4-8 in the test with VRE12204.

On to `O=C(O)c1cn(C2CC2)c2cc(N3CCN(Cc4ccc(-c5csnn5)cc4)CC3)c(F)cc2c1=O` [ML-77-157], for which the MIC with M6 (Normal (no PMBN)) is listed as 1; with Ab17978 (Normal (no PMBN)) it was 0.25-0.5; against MSSA9144 it was under 0.12; against EMRSA15, 4; against EMRSA16 it was 8; with VSE775, 0.5. In addition, the MIC against VRE12201 is listed as 0.5; in the test on VRE12204, 4-8.

`Cc1nc(-c2ccc(CN3CCN(c4cc5c(cc4F)c(=O)c(C(=O)O)cn5C4CC4)CC3)cc2)no1` [ML-77-163]: the MIC in the test on M6 (Normal (no PMBN)) is listed as 2; in the test on Ab17978 (Normal (no PMBN)), 0.5-1; against PA01 (Normal (no PMBN)) it was 32; in the test on MSSA9144, at most 0.12; against EMRSA16, 32; against VSE775, 1-2. For the same compound, the MIC against VRE12201 was 1.

With `O=C(O)c1cn(C2CC2)c2cc(N3CCN(c4cccc5ccccc45)CC3)c(F)cc2c1=O` [ML-77-168], the MIC against MSSA9144 was 1; against EMRSA15, 1-2; against EMRSA16, 1; against VSE775, 2; with VRE12201, 0.25-0.5; against VRE12204, 1.

Take `CCn1cc(C(=O)O)c(=O)c2cc(F)c(N3CCN(c4cccc5ccccc45)CC3)cc21` [ML-77-169, 1-ethyl-6-fluoro-7-(4-(naphthalen-1-yl)piperazin-1-yl)-4-oxo-1,4-dihydroquinoline-3-carboxylic acid]: the MIC against MSSA9144 is on record as 2; in the test with EMRSA15, 1-2; in the test on EMRSA16 it was 1; in the test on VSE775 it was 2; against VRE12201, 2; with VRE12204 it was 1.

As to `O=C(O)c1cn(C2CC2)c2cc(N3CCN(CCc4cccc5ccccc45)CC3)c(F)cc2c1=O` [ML-77-171], the MIC against MSSA9144 is listed as 0.5; against EMRSA15 it was 2-4; against EMRSA16, 4; in the test with VSE775, 4; against VRE12201 it was 2; with VRE12204, 4.

Take `CCn1cc(C(=O)O)c(=O)c2cc(F)c(N3CCN(CCc4cccc5ccccc45)CC3)cc21` [ML-77-173, 1-ethyl-6-fluoro-7-(4-(2-(naphthalen-1-yl)ethyl)piperazin-1-yl)-4-oxo-1,4-dihydroquinoline-3-carboxylic acid]: the MIC against MSSA9144 is on record as 2-4; in the test with EMRSA15, 4; in the test with EMRSA16, 4; in the test on VSE775 it was 4-8; in the test with VRE12201, 4-8; against VRE12204 it was 4.

Values taken from patent publication US11746116B2, “Antibiotic resistance breakers” (KING'S COLLEGE LONDON, priority 2017, dated 2023).
